# Read-outs that look alike come from different tables or passages of the source.
# What was measured:
# P. aeruginosa PAO1 [1] = assay: LC-MS/MS whole-cell accumulation assay, P. aeruginosa PAO1; type: cell-based, Pseudomonas aeruginosa; conditions: for WT Accum: WT PAO1, ± s.e.m. (Table 7); for PA accum.: P. aeruginosa, value ± s.e.m. (Chart 2)
# Method: (§1) Accumulation Assay. The accumulation assay was performed in triplicate in batches of ten samples, with each batch containing tetracycline or ciprofloxacin as a positive control. P. aeruginosa PAO1, PAO1 A6, PA14, PA14 A40, and PA1280, and E. coli MG1655 were used in these experiments. For each replicate, 2.5 mL (E. coli) or 5 mL (P. aeruginosa) of an overnight culture was diluted into 250 mL of fresh Luria-Bertani broth (Lennox) or Tryptic Soy Broth (TSB) and grown at 37° C. with shaking to an optical density (OD600) of 0.55-0.60. The bacteria were pelleted at 3220 r.c.f. for 10 min at 4° C., and the supernatant was discarded. The pellets were resuspended in 40 mL of phosphate buffered saline (PBS) and pelleted as before, and the supernatant was discarded. The pellets were resuspended in 8.8 mL of fresh PBS and aliquoted into ten, 1.5 mL Eppendorf tubes (875 μL each). The number of colony-forming units (CFUs) was determined by a calibration curve. The samples were equilibrated at 37° C. with shaking for 5 min; compound was added (final concentration=50 μM), and then the samples were incubated at 37° C. with shaking for either 10 min. These time points were short enough to minimize metabolic and growth changes (no changes in OD600 or CFU count observed). After incubation, 800 μL of the cultures was carefully layered on 700 μL of silicone oil (9:1 AR20/Sigma High Temperature, cooled to −78° C.). Bacteria were pelleted through the oil by centrifuging at 13 000 r.c.f. for 2 min at room temperature (with the supernatant remaining above the oil); the supernatant and oil were then removed by pipetting. To lyse the samples, each pellet was dissolved in […] of water, and then, they were subjected to three (E. coli) or four (P. aeruginosa) freeze-thaw cycles of 3 min in liquid nitrogen followed by 3 min in a water bath at 65° C. P. aeruginosa samples were then treated with 50 µM DNase and RNase and incubated at 37° C. for 15 minutes. The lysates were pelleted at 13 000 r.c.f. for 2 min at room temperature, and the supernatant was collected ([…]). The debris was resuspended in 100 μL of methanol and pelleted as before. The supernatants were removed and combined with the previous supernatants collected. Finally, the remaining debris was removed by centrifuging at 20 000 r.c.f. for 10 min at room temperature. Supernatants were analyzed by LC-MS/MS.
# (§2) Samples were analyzed with the 5500 QTRAP LC/MS/MS system (AB Sciex) with a 1200 series HPLC system (Agilent Technologies) including a degasser, an autosampler, and a binary pump. Liquid chromatography separation was performed on an Agilent SB-Aq column (4.6×50 mm, 5 μm) (Agilent Technologies) with mobile phase A (0.1% formic acid in water) and mobile phase B (0.1% formic acid in acetonitrile). The flow rate was 0.3 mL/min. The linear gradient was as follows: 0-3 min, 100% mobile phase A; 10-15 min, 2% mobile phase A; 15.5-21 min, 100% mobile phase A. The autosampler was set at 5° C. The injection volume was 15 μL. Mass spectra were acquired with both positive electrospray ionization at the ion spray voltage of 5500 V and negative electrospray ionization at the ion spray voltage of −4500 V. The source temperature was 450° C. The curtain gas, ion source gas 1, and ion source gas 2 were 33, 50, and 65, respectively. Multiple reaction monitoring was used to quantify the metabolites. Power analysis was not used to determine the number of replicates. Error bars represent the standard error of the mean of three biological replicates. The statistical significance of the accumulation was determined using a two sample Welch's t test (one-tailed test, assuming unequal variance) relative to the negative controls. All compounds evaluated in the biological assays were >95% pure.
# MBN assay. Assays measuring permeabilization by polymyxin B nonapeptide (PMBN) were performed as above, with the addition of 8 μg/mL PMBN immediately before the compound of interest was added.
# P. aeruginosa PAΔ6 [2] = assay: LC-MS/MS whole-cell accumulation assay, PAΔ6; type: cell-based, Pseudomonas aeruginosa; conditions: for change of accumulation in efflux pump knockout PAΔ6 versus WT PAO1: FIG. 1c; for Fold change (Accum): PAΔ6 Accum / WT Accum (Table 7); for PAΔ6 Accum: ± s.e.m. (Table 7)
# Method: as §1, §2
# P. aeruginosa PAO1 [3] = assay: MIC, CLSI broth microdilution, P. aeruginosa PAO1; type: cell-based, Pseudomonas aeruginosa; conditions: for MIC: Pseudomonas aeruginosa
# Method: (§3) Antimicrobial Susceptibility Tests. Susceptibility testing was performed in biological triplicate, using the microdilution broth method as outlined by the Clinical and Laboratory Standards Institute. Bacteria were cultured with cation-adjusted Meuller-Hinton broth (Sigma-Aldrich; catalogue number: 90922) or Luria-Bertani (LB) broth (Lennox) in round-bottom 96-well plates (Corning; catalogue number: 3788).
# P. aeruginosa PAΔ6 [4] = assay: MIC, efflux pump knockout strain PAΔ6; type: cell-based, Pseudomonas aeruginosa; conditions: for Fold change: MIC ratio WT PAO1 / PAΔ6 (Table 2); for Fold change (MIC): WT MIC / PAΔ6 MIC (Table 7)
# Method: as §3
# WT EC = conditions: retrospective literature analysis (Table 6); cited from earlier work
# WT PA = conditions: retrospective literature analysis (Table 6); cited from earlier work
# E. coli MG1655 [5] = assay: LC-MS/MS whole-cell accumulation assay, E. coli MG1655; type: cell-based; conditions: for EC accum.: E. coli, value ± s.e.m. (Chart 2); for EC Accumulation (FA): E. coli MG1655, accumulation of FA reported (Table 8)
# Method: as §1, §2
# E. coli MG1655 [6] = assay: MIC, E. coli MG1655; type: cell-based; conditions: Escherichia coli, MG1655; CLSI (Table 8); read-out: E. coli MG1655 MIC
# Method: as §3
# [7] = efflux pump KO strain, MH or LB broth (Table 2)
# [8] = PAO1, CLSI (Table 8), read-out: P. aeruginosa PAO1 MIC
# [9] = WT P. aeruginosa PAO1, MH or LB broth (Table 7), read-out: WT MIC
compound,measurement,setting,value
O=C(N[C@H](CO)[C@H](O)c1ccc([N+](=O)[O-])cc1)C(Cl)Cl [Chloramphenicol],WT Accum,P. aeruginosa PAO1 [1],122 ± 23 nmol/10^12 CFUs
same,change of accumulation in efflux pump knockout PAΔ6 versus WT PAO1,P. aeruginosa PAΔ6 [2],increase in accumulation
same,Fold change (Accum),P. aeruginosa PAΔ6 [2],4.4
same,PAΔ6 Accum,P. aeruginosa PAΔ6 [2],537 ± 19 nmol/10^12 CFUs
same,MIC,"P. aeruginosa PAO1 [3]; WT P. aeruginosa PAO1, MH or LB broth (Table 2), read-out: WT MIC",> 512 µg/mL
same,WT MIC,"P. aeruginosa PAO1 [3]; WT P. aeruginosa PAO1, MH or LB broth (Table 7)",>512 µg/mL
same,PAΔ6 MIC,P. aeruginosa PAΔ6 [4]; MH or LB broth (Table 7),4 µg/mL
same,Fold change,P. aeruginosa PAΔ6 [4],>128
same,Fold change (MIC),P. aeruginosa PAΔ6 [4],>128
same,PAΔ6 MIC,P. aeruginosa PAΔ6 [4]; [7],4 µg/mL
CCNc1cc(F)cc2c1[nH]c1ncc(-c3cnc(OC)nc3)c(-n3cc(CN)c(C(F)(F)F)n3)c12 [Compound 17r],WT EC MIC,WT EC,0.31 µg/mL
same,WT PA MIC,WT PA,1.3 µg/mL
CCNc1cc(F)cc2c1[nH]c1ncc(-c3cnc(OC)nc3)c(-n3ncc4c3CNC4)c12 [Compound 17x],WT EC MIC,WT EC,0.81 µg/mL
same,WT PA MIC,WT PA,10 µg/mL
N[C@H]1CO[C@H]2[C@@H]1OC[C@H]2OS(=O)(=O)c1ccc(-c2ccccc2)cc1 [Compound 48],PA accum.,P. aeruginosa PAO1 [1],282 ± 37 nmol/10^12 CFUs
same,EC accum.,E. coli MG1655 [5],1965 ± 291 nmol/10^12 CFUs
N[C@H]1CO[C@H]2[C@@H]1OC[C@H]2OS(=O)(=O)c1ccc(Br)cc1 [Compound 49],PA accum.,P. aeruginosa PAO1 [1],217 ± 3 nmol/10^12 CFUs
same,EC accum.,E. coli MG1655 [5],1647 ± 108 nmol/10^12 CFUs
Cc1ccc(S(=O)(=O)O[C@@H]2CO[C@H]3[C@@H]2OC[C@@H]3N)cc1 [Compound 50],PA accum.,P. aeruginosa PAO1 [1],163 ± 39 nmol/10^12 CFUs
same,EC accum.,E. coli MG1655 [5],877 ± 29 nmol/10^12 CFUs
NC1CCCc2c1cncc2N1Cc2cc(Cl)ccc2C1=O (centres unmarked) [Compound 51],PA accum.,P. aeruginosa PAO1 [1],222 ± 11 nmol/10^12 CFUs
same,EC accum.,E. coli MG1655 [5],500 ± 10 nmol/10^12 CFUs
N#Cc1ccc(-c2cncc3c2CCCC3N)cc1 (centres unmarked) [Compound 52],PA accum.,P. aeruginosa PAO1 [1],161 ± 12 nmol/10^12 CFUs
same,EC accum.,E. coli MG1655 [5],929 ± 39 nmol/10^12 CFUs
CN1C(=O)CCc2cc(-c3cncc4c3CCC[C@H]4N)ccc21 [Compound 53],PA accum.,P. aeruginosa PAO1 [1],282 ± 37 nmol/10^12 CFUs
same,EC accum.,E. coli MG1655 [5],437 ± 28 nmol/10^12 CFUs
NCCCCCCNS(=O)(=O)c1cccc2ccccc12 [Compound 54],PA accum.,P. aeruginosa PAO1 [1],399 ± 63 nmol/10^12 CFUs
same,EC accum.,E. coli MG1655 [5],108 ± 17 nmol/10^12 CFUs
Cn1cc(C2=C(c3c4n(c5ccccc35)CC[C@H](CN)C4)C(=O)NC2=O)c2ccccc21 [Compound 55],PA accum.,P. aeruginosa PAO1 [1],1193 ± 27 nmol/10^12 CFUs
same,EC accum.,E. coli MG1655 [5],17 ± 7 nmol/10^12 CFUs
Cc1ccc(C(=O)N(CCCN)[C@@H](c2nc3cc(Cl)ccc3c(=O)n2Cc2ccccc2)C(C)C)cc1 [Compound 56],PA accum.,P. aeruginosa PAO1 [1],658 ± 113 nmol/10^12 CFUs
same,EC accum.,E. coli MG1655 [5],244 ± 31 nmol/10^12 CFUs
CC(=O)O[C@H]1C[C@@]2(C)[C@@H](C[C@@H](O)[C@H]3[C@@]4(C)CC[C@@H](O)[C@@H](C)[C@@H]4CC[C@@]32C)/C1=C(\CCC=C(C)C)C(=O)NCCCNCCCNCCCN [FA polyamine],increase in accumulation relative to FA,P. aeruginosa PAO1 [1]; text b129,30 -fold
same,antibacterial activity (in words),"P. aeruginosa PAO1 [3]; Chart 6, strain not given",no longer has potent antibacterial activity
CC(=O)O[C@H]1C[C@@]2(C)[C@@H](C[C@@H](O)[C@H]3[C@@]4(C)CC[C@@H](O)[C@@H](C)[C@@H]4CC[C@@]32C)/C1=C(\CCC=C(C)C)C(=O)O/N=C(\N)CN [FA prodrug 1],EC Accumulation (FA),E. coli MG1655 [5],850 ± 61 nmol/1012 CFUs
same,MIC,E. coli MG1655 [6],> 256 µg/mL
same,MIC,P. aeruginosa PAO1 [3]; [8],> 256 µg/mL
CC(=O)O[C@H]1C[C@@]2(C)[C@@H](C[C@@H](O)[C@H]3[C@@]4(C)CC[C@@H](O)[C@@H](C)[C@@H]4CC[C@@]32C)/C1=C(\CCC=C(C)C)C(=O)O/N=C(\N)CNCCCN [FA prodrug 2],EC Accumulation (FA),E. coli MG1655 [5],969 ± 71 nmol/1012 CFUs
same,MIC,E. coli MG1655 [6],256 µg/mL
same,MIC,P. aeruginosa PAO1 [3]; [8],> 256 µg/mL
CC(=O)O[C@H]1C[C@@]2(C)[C@@H](C[C@@H](O)[C@H]3[C@@]4(C)CC[C@@H](O)[C@@H](C)[C@@H]4CC[C@@]32C)/C1=C(\CCC=C(C)C)C(=O)O/N=C(\N)CNCCCNCCCN [FA prodrug 3],EC Accumulation (FA),E. coli MG1655 [5],1764 ± 37 nmol/1012 CFUs
same,MIC,E. coli MG1655 [6],32 µg/mL
same,MIC,P. aeruginosa PAO1 [3]; [8],128 µg/mL
Cc1cc(NS(=O)(=O)c2ccc(N)cc2)no1 [Sulfamethoxazole],WT Accum,P. aeruginosa PAO1 [1],101 ± 26 nmol/10^12 CFUs
same,Fold change (Accum),P. aeruginosa PAΔ6 [2],4.2
same,PAΔ6 Accum,P. aeruginosa PAΔ6 [2],420 ± 15 nmol/10^12 CFUs
same,MIC,P. aeruginosa PAO1 [3]; [9],> 64 µg/mL
same,PAΔ6 MIC,P. aeruginosa PAΔ6 [4]; MH or LB broth (Table 7),4 µg/mL
same,Fold change (MIC),P. aeruginosa PAΔ6 [4],>16
COc1cc(Cc2cnc(N)nc2N)cc(OC)c1OC [Trimethoprim],WT Accum,P. aeruginosa PAO1 [1],136 ± 11 nmol/10^12 CFUs
same,Fold change (Accum),P. aeruginosa PAΔ6 [2],2.6
same,PAΔ6 Accum,P. aeruginosa PAΔ6 [2],356 ± 28 nmol/10^12 CFUs
same,MIC,P. aeruginosa PAO1 [3]; [9],> 512 µg/mL
same,PAΔ6 MIC,P. aeruginosa PAΔ6 [4]; MH or LB broth (Table 7),2 µg/mL
same,Fold change (MIC),P. aeruginosa PAΔ6 [4],>256
C=C[C@]1(C)C[C@@H](OC(=O)CSC(C)(C)CNC(=O)[C@H](N)C(C)C)[C@]2(C)[C@H](C)CC[C@]3(CCC(=O)[C@H]32)[C@@H](C)[C@@H]1O [Valnemulin],change of accumulation upon membrane permeabilization,"P. aeruginosa PAO1 [1]; treatment with PMBN, FIG. 1b",significant increase in accumulation
same,change of accumulation in efflux pump knockout PAΔ6 versus WT PAO1,P. aeruginosa PAΔ6 [2],increase in accumulation
same,MIC,"P. aeruginosa PAO1 [3]; PAO1, read-out: PAO1 MIC",256 µg/mL
same,MIC,"P. aeruginosa PAO1 [3]; PAO1, read-out: WT MIC",256 µg/mL
same,PAO1 + PMBN MIC,"P. aeruginosa PAO1 [3]; co-treatment of 8 μg/mL of PMBN, MH broth",1 µg/mL
same,Fold change,P. aeruginosa PAΔ6 [4],2048
same,PAΔ6 MIC,P. aeruginosa PAΔ6 [4]; [7],0.125 µg/mL

# From patent US20260240869A1, “ANTIPSEUDOMONAL FUSIDIC ACID COMPOUNDS” (priority 2022, published 2026)
